Assay results published in patent US20260234157A1, “COMPOUND AND METHOD FOR TARGETED DEGRADATION OF ANDROGEN RECEPTOR” (Gan & Lee Pharmaceuticals Co., Ltd., priority 2023, published 2026).
Numbering of substitutions follows the chain as printed. Where two headings read alike, the source gives them in different places.

Experiments:
Type in all cases: cell-based
AR protein [1] = target: T1, AR protein (Homo sapiens, UniProt P10275, T878A); assay: Degradation of AR protein in LNCaP cells (Western blot); settings: for inhibition at 0.01 µM: read-out: Degradation rates of the AR protein in LNCaP cells, 10 nM (%); for inhibition at 0.1 µM: read-out: Degradation rates of the AR protein in LNCaP cells, 100 nM (%)
T1 construct: degradation activity of the compounds disclosed in the present disclosure on AR protein in LNCaP cells; host or cells: LNCaP FGC
T1 sequence (P10275 1-920 T878A): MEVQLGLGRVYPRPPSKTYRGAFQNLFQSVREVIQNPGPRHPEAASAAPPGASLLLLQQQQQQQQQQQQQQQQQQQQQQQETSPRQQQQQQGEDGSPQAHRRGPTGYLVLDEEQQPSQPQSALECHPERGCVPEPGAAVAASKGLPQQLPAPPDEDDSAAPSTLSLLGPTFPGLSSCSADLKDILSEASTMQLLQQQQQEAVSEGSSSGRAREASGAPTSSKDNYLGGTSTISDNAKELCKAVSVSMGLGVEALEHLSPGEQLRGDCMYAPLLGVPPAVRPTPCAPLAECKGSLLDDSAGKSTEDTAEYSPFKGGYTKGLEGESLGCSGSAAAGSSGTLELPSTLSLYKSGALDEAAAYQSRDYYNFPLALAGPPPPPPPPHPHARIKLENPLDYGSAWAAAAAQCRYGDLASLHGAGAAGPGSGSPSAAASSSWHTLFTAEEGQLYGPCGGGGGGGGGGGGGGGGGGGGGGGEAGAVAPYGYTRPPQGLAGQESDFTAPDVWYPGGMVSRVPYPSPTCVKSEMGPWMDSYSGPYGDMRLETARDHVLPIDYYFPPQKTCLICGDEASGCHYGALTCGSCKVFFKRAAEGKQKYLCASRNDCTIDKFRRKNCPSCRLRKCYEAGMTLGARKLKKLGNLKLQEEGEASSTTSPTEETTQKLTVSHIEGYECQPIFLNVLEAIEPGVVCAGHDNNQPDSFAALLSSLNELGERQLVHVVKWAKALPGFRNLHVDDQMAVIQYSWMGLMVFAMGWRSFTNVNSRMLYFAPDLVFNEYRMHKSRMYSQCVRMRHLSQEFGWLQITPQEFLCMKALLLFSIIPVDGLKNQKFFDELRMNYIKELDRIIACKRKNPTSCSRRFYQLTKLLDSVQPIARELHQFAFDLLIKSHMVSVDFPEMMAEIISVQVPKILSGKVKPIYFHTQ
How it was run: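 AR assessed by SDS-PAGE/Western blot with infrared imaging; band greyscale normalised to GAPDH gave percent degradation.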

AR protein [2] = target: T2, AR protein (Homo sapiens, UniProt P10275); assay: Degradation of AR protein in VCaP cells (Western blot); settings: 8 hours; for inhibition at 0.01 µM: compound at 10 nM, read-out: Degradation rate of the AR protein in VCaP cells, 10 nM (%); for inhibition at 0.1 µM: compound at 100 nM, read-out: Degradation rate of the AR protein in VCaP cells, 100 nM (%)
T2 construct: degradation activity of the compounds disclosed in the present disclosure on AR protein in VCaP cells; host or cells: VCaP
T2 sequence (P10275 1-920): T1 sequence (P10275 1-920 T878A) with A878T
How it was run: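 VCaP cells treated with compound alongside solvent controls for 8 h, then lysed in RIPA and protein quantified by BCA. AR detected by SDS-PAGE/Western blot with infrared imaging. Degradation rate calculated from band grayscale, with GAPDH as internal reference.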

LNCaP FGC cells = assay: Inhibition of proliferation of LNCaP cells (WST-8); settings: Homo sapiens, LNCaP, 96 h
Method: The cells were cultured in a cell culture incubator with 5% CO2 at 37° C. overnight. […] On the sixth day, 96 well plates were taken out, and 20 μL of WST-8 (Beytime, C0040) reagent was added to each well.

VCaP cells = assay: Inhibition of proliferation of VCaP cells (WST-8); settings: Homo sapiens, read-out: IC50 for inhibiting the proliferation of VCaP cells
How it was run: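 VCaP FGC cells, 15000 per well in DMEM with 10% FBS, were cultured at 37° C, 5% CO2. On day nine, WST-8 reagent was added to read proliferation.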

[3] = LNCaP cells, compound 10 nM, 8 hours, Western blot grayscale, GAPDH internal reference
[4] = LNCaP cells, compound 100 nM, 8 hours, Western blot grayscale, GAPDH internal reference
[5] = LNCaP FGC cells, 96 hours, WST-8 absorbance at 450 nm, read-out: IC50 for inhibiting the proliferation of LNCaP cells
[6] = VCaP cells, 168 hours, WST-8 absorbance at 450 nm

SMILES	inhibition at 0.01 µM (AR protein [1]; [3])	inhibition at 0.1 µM (AR protein [1]; [4])	inhibition at 0.01 µM (AR protein [2])	inhibition at 0.1 µM (AR protein [2])	IC50 (LNCaP FGC cells; [5])	IC50 (VCaP cells; [6])	inhibition at 0.01 µM (AR protein [1]; LNCaP, 8 h)	inhibition at 0.1 µM (AR protein [1]; LNCaP, 8 h)	IC50 (LNCaP FGC cells; read-out: IC50 for inhibiting the proliferation of LNCaP cells, LNCaP FGC cells, 96 hours, WST-8 absorbance at 450 nm)	IC50 (VCaP cells; VCaP, 168 h)
N#Cc1ccc(O[C@H]2CC[C@H](NC(=O)c3ccc(N4CCC(C#N)(CN5CCC6(CC5)COc5c6ccc6c5C(=O)N(C5CCC(=O)NC5=O)C6=O)CC4)nn3)CC2)cc1Cl (stereo partly drawn) [Compound 227]	45%	62%	24%	60%	170 nM	30 nM	–	–	–	–
N#Cc1ccc(O[C@H]2CC[C@H](NC(=O)c3ccc(N4CCC(N5CCC6(CCc7cc8c(cc7O6)C(=O)N(C6CCC(=O)NC6=O)C8=O)CC5)C(F)(F)C4)nn3)CC2)cc1Cl (stereo partly drawn) [Compound 27]	14%	39%	33%	44%	110 nM	380 nM	–	–	–	–
N#Cc1ccc(O[C@H]2CC[C@H](NC(=O)c3ccc(N4CCC(N5CCC(N6CCC7(CC6)COc6c7ccc7c6CN(C6CCC(=O)NC6=O)C7=O)CC5)CC4)nn3)CC2)cc1Cl (stereo partly drawn) [Compound 173]	–	–	75%	86%	–	–	75%	72%	12300 nM	1 nM
N#Cc1ccc(O[C@H]2CC[C@H](NC(=O)c3ccc(N4CCC5(CCC(N6CCC7(CC6)COc6cc8c(cc67)C(=O)N(C6CCC(=O)NC6=O)C8=O)CC5)CC4)nn3)CC2)cc1Cl (stereo partly drawn) [Compound 51]	13%	49%	83%	90%	400 nM	18 nM	–	–	–	–
N#Cc1ccc(O[C@H]2CC[C@H](NC(=O)c3ccc(N4CC5(CC(N6CCC7(CC6)COc6cc8c(cc67)C(=O)N(C6CCC(=O)NC6=O)C8=O)C5)C4)nn3)CC2)cc1Cl (stereo partly drawn) [Compound 50]	66%	86%	77%	88%	1200 nM	28 nM	–	–	–	–
COc1cc(O[C@H]2C(C)(C)[C@H](NC(=O)c3ccc(N4CCC(CN5CCC6(CC5)COc5c6ccc6c5C(=O)N(C5CCC(=O)NC5=O)C6=O)CC4)cc3)C2(C)C)ccc1C#N (stereo partly drawn) [Compound 234]	58%	81%	35%	72%	270 nM	36 nM	–	–	–	–
N#Cc1ccc(O[C@H]2CC[C@H](NC(=O)c3ccc(N4CCC5(CCC(N6CCC7(CCc8cc9c(cc8O7)C(=O)N(C7CCC(=O)NC7=O)C9=O)CC6)CC5)CC4)nn3)CC2)cc1Cl (stereo partly drawn) [Compound 30]	28%	62%	39%	64%	1900 nM	850 nM	–	–	–	–
COc1cc(O[C@H]2CC[C@H](NC(=O)c3cnc(N4CCC(CN5CCC6(CC5)COc5c6ccc6c5C(=O)N(C5CCC(=O)NC5=O)C6=O)(OC)CC4)nc3)CC2)ccc1C#N (stereo partly drawn) [Compound 220]	32%	63%	22%	78%	64 nM	51 nM	–	–	–	–
CCC1(CN2CCC3(CC2)COc2c3ccc3c2C(=O)N(C2CCC(=O)NC2=O)C3=O)CCN(c2ccc(C(=O)N[C@H]3CC[C@H](Oc4ccc(C#N)c(OC)c4)CC3)nn2)CC1 (stereo partly drawn) [Compound 250]	-14%	67%	15%	61%	> 90000 nM	160 nM	–	–	–	–

Now from value to compound, other results behind:

inhibition at 0.01 µM (AR protein [1]; [3])	inhibition at 0.1 µM (AR protein [1]; [4])	inhibition at 0.01 µM (AR protein [2])	inhibition at 0.1 µM (AR protein [2])	IC50 (LNCaP FGC cells; [5])	IC50 (VCaP cells; [6])	SMILES	inhibition at 0.01 µM (AR protein [1]; LNCaP, 8 h)	inhibition at 0.1 µM (AR protein [1]; LNCaP, 8 h)	IC50 (LNCaP FGC cells; read-out: IC50 for inhibiting the proliferation of LNCaP cells, LNCaP FGC cells, 96 hours, WST-8 absorbance at 450 nm)	IC50 (VCaP cells; VCaP, 168 h)
31%	28%	11%	63%	3710 nM	5120 nM	COc1cc(O[C@H]2CC[C@H](NC(=O)c3ccc(N4CCC(CN5CC6(CCc7cc8c(cc7O6)C(=O)N(C6CCC(=O)NC6=O)C8=O)C5)(OC)CC4)nn3)CC2)ccc1C#N (stereo partly drawn) [Compound 231]	–	–	–	–
35%	61%	7%	63%	11800 nM	270 nM	COc1cc(O[C@H]2C(C)(C)[C@H](NC(=O)c3ccc(N4CCC(F)(CN5CC6(CCc7cc8c(cc7O6)C(=O)N(C6CCC(=O)NC6=O)C8=O)C5)CC4)cc3)C2(C)C)ccc1C#N (stereo partly drawn) [Compound 269]	–	–	–	–
47%	40%	9%	28%	72000 nM	110 nM	COc1cc(O[C@H]2C(C)(C)[C@H](NC(=O)c3ccc(N4CCC(F)(CN5CCC6(CCc7cc8c(cc7O6)C(=O)N(C6CCC(=O)NC6=O)C8=O)CC5)CC4)cc3)C2(C)C)ccc1C#N (stereo partly drawn) [Compound 270]	–	–	–	–
65%	69%	11%	54%	13500 nM	22 nM	N#Cc1ccc(O[C@H]2CC[C@H](NC(=O)c3ccc(C#Cc4ccc(N5CCC6(CC5)COc5c6ccc6c5CN(C5CCC(=O)NC5=O)C6=O)nc4)nn3)CC2)cc1Cl (stereo partly drawn) [Compound 239]	–	–	–	–
49%	73%	21%	74%	22000 nM	3.5 nM	COc1cc(O[C@H]2C(C)(C)[C@H](NC(=O)c3ccc(N4CCC(C)(CN5CCC6(CC5)COc5c(ccc7c5C(=O)N(C5CCC(=O)NC5=O)C7)C6)CC4)cc3)C2(C)C)ccc1C#N (stereo partly drawn) [Compound 266]	–	–	–	–
25%	4%	4%	8%	90500 nM	11800 nM	N#Cc1ccc(O[C@H]2CC[C@H](NC(=O)c3ccc(N4CCC(F)(CN5CC6(CCc7ccc8c(c7O6)C(=O)N(C6CCC(=O)NC6=O)C8=O)C5)CC4)nn3)CC2)cc1Cl (stereo partly drawn) [Compound 164]	–	–	–	–
